Assay results as given in patent US5352462A, “Anti-inflammatory factor, method of isolation, and use” (Stolle Research & Development Corporation, priority 1992, dated 1994).

Experiments:
[1] = tested on: reverse passive Arthus reaction; assay: Reverse passive Arthus reaction; format: in vivo, rat; settings: 20 mg i.v.
Method: The possibility that the anti-inflammatory factor might affect neutrophil involvement was investigated by evaluating the ability of the material to modulate the reverse passive Arthus reaction (RPA). This immune complex-induced response is primarily neutrophil mediated and agents which affect the development of the reaction do so via an effect on these cells. To induce the RPA, rats were injected intradermally with rabbit antibody to ovalbumin and intravenously with native ovalbumin. Ovalbumin/ovalbumin-antibody immune complexes form in and around the dermal blood vessel walls, host neutrophils bind to the Fc portion of the antibody and an intense inflammatory reaction is initiated. It should be noted that, although the response is initiated by immune-complexes, it takes place independently of the host's immune system.
Three parameters are used to quantify the RPA. These are, (1) edema--measured using the accumulation of ^125 I-HSA, (2) hemorrhage--assessed by in vivo pre-labelling RBC's with ^59 Fe and (3) neutrophil accumulation--measured by determining tissue levels of the neutrophils specific enzyme myeloperoxidase (MPO). These assays are known to those of ordinary skill in the art.
Eighteen rats were divided into three groups of six. Rabbit antiovalbumin (40 μl) was injected intradermally at four sites on the back of each animal and 2 mg of ovalbumin injected intravenously immediately afterwards. One group of animals received no other treatment and served as controls. The second group were injected intravenously with 20 mg of a lactose preparation, while the final group were injected intravenously with 20 mg of a purified preparation of MAIF. Both lactose and MAIF preparation were administered with the ovalbumin. The severity of the reaction was assessed 3.5 hours after challenge.

[2] = tested on: neutrophil adhesion to venular endothelium; assay: Intravital microscopy of PAF-exposed rat mesenteric venules; format: in vivo; settings: PAF superfusion 100 nM, 60 min
Method: The temperature of the pedestal was maintained at 37° C. with a constant temperature circulator (Fisher Scientific, model 80).

[3] = tested on: carrageenan-induced footpad edema; assay: Quantitative rat paw edema test with 125I-HSA; format: in vivo; settings: aspirin 200 mg/kg oral, 30 min prior
Method: Peak I from the G-10 column, supplied by Stolle Milk Biologics International, was prepared according to the methods described in U.S. Pat. No. 4,956,349. Lactose, obtained from commercial sources, was used as placebo. Aspirin was used as a positive control. Aspirin was dissolved in water and given orally by gastric gavage at the ratio of 200 mg per kilogram, a dose known to be active in the assay. […] The footpad assay was modified by using isotopically labeled human serum albumin (^125 I-HSA) that localizes in the carrageenan-induced lesion in direct proportion to the volume of the exudate. By determining the total radioactive count in the footpad and comparing this to the counts in a known volume of plasma from the injected animal, a direct measurement of edema in microliters of plasma equivalents is obtained. ^125 I-HSA was injected intravenously at a dose of 1.0 microcurie per rat. Female Dark Agouti rats were used. […]
To conduct the carrageenan footpad assay, 0.1 ml of 2% carrageenan was injected subcutaneously into each hind foot pad of an anesthetized rat. […] Both hind feet were then removed and the levels of radioactivity in each foot and in the 200 μl plasma standard were measured in an automated gamma counter. From these measurements the volume of edema in each foot was calculated and expressed in microliters. […]

[4] = tested on: circulating neutrophils and lymphocytes; assay: Circulating leucocytes after i.v. administration; format: in vivo, rat
Method: Two experiments were done. In the first, the MAIF preparation was administered intravenously at a dose of 40 mg/rat to one group of 6 animals and a control group was injected with saline. Blood samples were obtained at baseline, 1, 4, and 24 hours after treatment.
A further dose-response study was carried out in which a group of rats were injected intravenously with saline, 5, 10 or 20 mg of the MAIF preparation. Blood from each rat had been taken 7 days previously to provide baseline values and was taken again 4 hours after the injection of MAIF. Included on the graph are the results obtained from the sample taken 4 hours after the administration of 40 mg the MAIF preparation (see FIG. 31).
Data were also obtained pertaining to the effect of three other cell-targeted, anti-inflammatory/immunomodulatory agents on circulating leucocytes in the rat. […] The temporal relationship between drug administration and effect is somewhat different. […] The effects of the anti-inflammatory factor would appear to closely parallel the action of methyl-prednisolone.

[5] = tested on: superoxide production by neutrophils; assay: Superoxide assay, cytochrome C reduction by stimulated neutrophils; format: cell-based, human
Method: Neutrophils from healthy donors were purified by dextran sedimentation followed by hypotonic lysis and Histopaque centrifugation. Except for the dextran sedimentation step, which was performed at room temperature, the cells were kept at 4° C. throughout the isolation procedure. […] After isolation, neutrophils were resuspended at a final concentration of 2×10^6 cells/ml in phosphate buffered saline (PBS). […] After washing, neutrophils were incubated in the dark at 4° C. for 30 minutes with saturating concentrations of fluorescein-conjugated murine anti-human CD18, human CD11 b, IGG coated microbeads (Simply Cellular™ microbeads) or the murine negative control antibody.
The reduction of cytochrome C by activated neutrophils was measured using a spectrophotometer (Hitachi U2000) at 550 nm. Briefly, sample was added to two cuvettes and one cuvette was used as a reference. The latter contained superoxide dismutase (superoxide scavenger). […] Superoxide production was measured for 3 min.

Question: For `OC[C@H]1O[C@@H](O[C@H]2[C@H](O)[C@@H](O)C(O)O[C@@H]2CO)[C@H](O)[C@@H](O)[C@H]1O` (stereo partly drawn) [Lactose], which “suppression of neutrophil accumulation and hemorrhage” value [1] is on record?
Answer: modest and marginally significant suppression

Question: And the “Haemorrhage: μl of RBC” value ([1]; 3.5 hours after challenge)?
Answer: 3.0 ± 1.5 μl of RBC

Question: What about the “Neutrophil accumulation: Units of MPO” value ([1]; 3.5 hours after challenge) of the same compound?
Answer: 0.214 ± .176 Units of MPO

Question: And the “μl of Edema” value ([1]; 3.5 hours after challenge)?
Answer: 104 ± 23 µL

Question: `CCCCCCCCCCCCCCCCOCC(COP(=O)([O-])OCC[N+](C)(C)C)OC(C)=O` (stereo not drawn) [PAF] was tested. Which “increase in neutrophil adhesion to postcapillary venules” value [2] did it give?
Answer: approximately 6 fold

Question: With `CC(=O)Oc1ccccc1C(=O)O` [aspirin, Acetylsalicylic acid] as the compound, how does the inhibition of edema [3] read?
Answer: inhibited

Question: For `O=P1(N(CCCl)CCCl)NCCCO1` (stereo not drawn) [cyclophosphamide], which “circulating lymphocytes and neutrophils” value ([4]; comparator agents) is on record?
Answer: depletes both circulating lymphocytes and neutrophils

Question: `C[C@H]1C[C@@H]2[C@H]([C@@H](O)C[C@@]3(C)[C@H]2CC[C@]3(O)C(=O)CO)[C@@]2(C)C=CC(=O)C=C12` [methylprednisolone] was tested. Which lymphocyte/neutrophil ratio ([4]; rat, in vivo) did it give?
Answer: analogous to that seen with MAIF

Question: For superoxide dismutase, which “cytochrome c reduction by PMA and fMLP-stimulated neutrophils” value [5] is on record?
Answer: completely blocked
